Measurements published in the NIST ThermoML archive (doi:10.1021/je200673a).

Test: molar heat capacity at constant pressure
Conditions: 101.33 kPa, Crystal, Vacuum adiabatic calorimetry

C(#Cc1ccccc1)c1ccccc1 [1,2-diphenylethyne]
Conditions	molar heat capacity at constant pressure [J/K/mol]
5 K	0.4461
7.76 K	1.66
8.24 K	1.997
8.4 K	2.155
8.56 K	2.246
8.71 K	2.325
8.87 K	2.454
9.02 K	2.473
9.17 K	2.661
9.32 K	2.644
9.46 K	2.813
9.61 K	3.003
9.75 K	3.203
9.9 K	3.352
10 K	3.39
10.04 K	3.408
10.23 K	3.58
10.46 K	3.861
10.7 K	4.163
10.94 K	4.495
11.19 K	4.753
11.43 K	4.952
11.67 K	5.282
11.92 K	5.556
12.16 K	5.878
12.4 K	6.207
12.65 K	6.564
12.9 K	6.777
13.14 K	7.156
13.39 K	7.478
13.65 K	7.835
13.9 K	8.246
14.15 K	8.579
14.4 K	8.944
14.66 K	9.243
14.91 K	9.637
15.16 K	9.985
15.42 K	10.37
15.67 K	10.79
15.93 K	11.12
16.19 K	11.5
16.44 K	11.93
16.7 K	12.28
16.96 K	12.67
17.22 K	13.04
17.48 K	13.53
17.74 K	13.89
18 K	14.4
18.26 K	14.75
18.52 K	15.13
18.78 K	15.54
19.05 K	15.99
19.31 K	16.45
19.57 K	16.8
19.83 K	17.2
20 K	17.46
20.1 K	17.57
20.52 K	18.22
21.06 K	19.09
21.59 K	19.97
22.13 K	20.72
22.66 K	21.52
23.2 K	22.37
23.74 K	23.22
24.28 K	24.1
24.82 K	25
25 K	25.27
25.36 K	25.89
25.9 K	26.74
26.44 K	27.46
26.99 K	28.2
27.53 K	29.01
28.08 K	29.84
28.62 K	30.62
29.17 K	31.47
29.72 K	32.26
30 K	32.68
30.27 K	33.13
30.82 K	33.87
31.36 K	34.72
31.91 K	35.51
32.46 K	36.31
33.02 K	37.01
33.57 K	37.75
34.12 K	38.45
34.67 K	39.14
35 K	39.59
35.23 K	39.87
35.78 K	40.61
36.33 K	41.23
36.89 K	41.86
37.44 K	42.57
38 K	43.15
38.56 K	43.79
39.11 K	44.41
39.67 K	45.07
40 K	45.41
40.22 K	45.63
40.78 K	46.31
41.33 K	46.9
41.89 K	47.45
42.45 K	48.18
43 K	48.73
43.56 K	49.34
44.12 K	49.91
44.67 K	50.46
45 K	50.83
45.23 K	51.09
45.79 K	51.68
46.35 K	52.17
46.91 K	52.71
47.47 K	53.2
48.03 K	53.68
48.59 K	54.18
49.15 K	54.59
49.71 K	55.12
50 K	55.37
50.26 K	55.73
50.82 K	56.2
51.38 K	56.69
51.94 K	57.24
52.5 K	57.84
53.06 K	58.52
53.62 K	59.22
54.18 K	59.95
54.74 K	60.54
55 K	60.87
55.3 K	61.31
55.87 K	61.85
56.43 K	62.34
56.99 K	62.76
57.55 K	63.28
58.11 K	63.73
58.67 K	64.14
59.23 K	64.53
59.8 K	64.94
60 K	65.09
60.36 K	65.36
60.92 K	65.81
61.48 K	66.28
62.04 K	66.76
62.6 K	67.25
63.16 K	67.82
63.73 K	68.11
64.29 K	68.62
64.85 K	68.97
65 K	69.08
65.42 K	69.41
65.98 K	69.58
66.54 K	69.95
67.11 K	70.3
67.67 K	70.73
68.23 K	71.09
68.8 K	71.47
69.36 K	71.95
69.92 K	72.22
70 K	72.22
70.61 K	72.52
71.41 K	72.9
72.21 K	73.45
73.01 K	73.99
73.82 K	74.48
74.62 K	74.91
75 K	75.15
75.42 K	75.39
76.23 K	75.72
77.03 K	76.12
77.83 K	76.43
78.64 K	76.81
79.44 K	77.36
80 K	77.65
80.24 K	77.8
81.05 K	78.26
81.85 K	78.59
82.56 K	78.83
82.65 K	79
83.36 K	79.36
83.46 K	79.49
84.16 K	79.79
84.26 K	79.97
84.96 K	80.29
85 K	80.26
85.77 K	80.6
86.57 K	81.07
87.37 K	81.61
88.17 K	81.87
88.98 K	82.43
89.78 K	82.92
90 K	82.96
90.58 K	83.29
91.39 K	83.69
92.19 K	84.3
92.99 K	84.62
93.8 K	85.08
94.6 K	85.51
95 K	85.79
95.4 K	85.87
96.21 K	86.49
97.01 K	86.97
97.81 K	87.46
98.61 K	87.8
99.42 K	88.33
100 K	88.7
100.22 K	88.79
101.02 K	89.52
101.82 K	89.71
102.62 K	90.12
103.42 K	90.81
104.22 K	91.27
105.03 K	91.64
105.84 K	92.04
106.64 K	92.61
107.45 K	93.03
108.25 K	93.65
109.06 K	94.16
109.87 K	94.48
110 K	94.56
110.68 K	94.84
111.49 K	95.38
112.3 K	95.96
113.12 K	96.26
113.93 K	96.77
114.74 K	97.3
115.56 K	97.84
116.37 K	98.29
117.19 K	98.7
118.01 K	99.29
118.83 K	99.69
119.65 K	100.31
120 K	100.39
120.47 K	100.58
121.29 K	101.29
122.11 K	101.7
